# Source: BindingDB's records for patent US9108978 (Monash University, 2015)
# Target: T1, Bifunctional ligase/repressor BirA (Staphylococcus aureus, UniProt A0A3A5LBF0)
# T1 sequence (A0A3A5LBF0 whole entry): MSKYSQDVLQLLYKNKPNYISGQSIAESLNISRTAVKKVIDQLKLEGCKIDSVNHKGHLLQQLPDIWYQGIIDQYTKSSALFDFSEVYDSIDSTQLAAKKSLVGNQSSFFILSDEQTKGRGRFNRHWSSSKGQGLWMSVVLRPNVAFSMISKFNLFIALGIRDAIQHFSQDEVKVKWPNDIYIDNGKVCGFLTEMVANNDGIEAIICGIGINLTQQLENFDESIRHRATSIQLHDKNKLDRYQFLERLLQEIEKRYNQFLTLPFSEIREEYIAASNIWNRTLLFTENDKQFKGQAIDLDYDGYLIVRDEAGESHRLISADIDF
# Experiment: Enzyme Inhibition Assay
# Conditions: pH 8; 37 °C
# Method: The reaction was initiated by the addition of BPL to a final concentration of 4 nM. After 20 minutes at 37 C., 4 uL aliquots of the reaction were spotted onto Whatman paper pre-treated with biotin and trichloroacetic acid. The filters were washed twice with 10% v/v ice-cold trichloroacetic acid and once with ethanol before air-drying. Quantitation of protein-bound radiolabelled biotin was performed by liquid scintillation. One unit of enzyme activity was defined by the amount of BPL required to incorporate 1 nmol of biotin per minute. The IC50 value of each compound was determined.
compound,measurement,value
"Nc1ncnc2c1ncn2[C@@H]1O[C@H](COP(=O)(O)OCCCCC[C@@H]2SC[C@@H]3NC(=O)N[C@@H]32)[C@@H](O)[C@H]1O [US9108978, 2.02]",IC50,203 nM
same,Ki,30 nM
